{
  "source": "patent EP0283369B1",
  "about": "“Use of Metformin in the preparation of medicaments” (LIPHA, LYONNAISE INDUSTRIELLE PHARMACEUTIQUE, priority 1987, dated 1988)",
  "key": {"artérioles terminales": {"test_system": "artérioles terminales", "assay": "Skin window in the awake hamster: spontaneous microvascular vasomotion", "assay_type": "in vivo", "details": "2 mg/100 g par voie intraveineuse; hamster éveillé; controls: une par minute", "excerpt": "La fenêtre est éclairée par transmission, on observe le lit capillaire au microscope trioculaire. L'image est transformée en vidéosignal par une caméra. L'enregistrement du diamètre des microvaisseaux est réalisé en continu.\nLe produit à étudier est administré par voie intra-veineuse."}, "[1]": {"test_system": "modèle d'ischémie périphérique chez le rat", "assay": "Peripheral ischaemia model: microspheres injected into the femoral artery", "assay_type": "in vivo", "details": "voie intra péritonéale 20 mg/kg", "excerpt": "Dans un modèle d'ischémie périphérique chez le rat, l'injection de microsphères dans l'artère fémorale, provoque l'apparition d'un oedème de la patte ainsi qu'une baisse des capacités motrices de l'animal."}, "[2]": {"test_system": "endothélium en culture sur sa matrice extracellulaire", "assay": "Penetration of cancer cells through cultured endothelium on its extracellular matrix", "assay_type": "cell-based", "details": "10⁻⁴ - 10⁻⁵ M; in vitro"}, "[3]": {"test_system": "néovascularisation de la cornée du lapin", "assay": "Rabbit cornea neovascularisation model", "assay_type": "in vivo", "details": "administration in situ", "excerpt": "(§1) • la néovascularisation est le résultat d'une prolifération anormale de cellules endothéliales en particulier dans un environnement hypoxique. • * Cette situation peut être reproduite in vitro en étudiant une telle prolifération sur une culture de cellules endothéliales humaines placées en hypoxie. […] Tout d'abord dans le modèle classique de néovascularisation de la cornée du lapin (M.A. Gimbrone Jr, R.S. Cotran, S.B. Leafman et A.J. Folkman, J. Natl Cancer Inst. 52)."}, "[4]": {"test_system": "formation de néovaisseaux", "assay": "Neovascularisation after irreversible venous occlusion by argon laser photocoagulation in the miniature pig", "assay_type": "in vivo, porc miniature", "details": "voie orale, dose journalière de 100 mg, pendant 4 semaines; 6 porcs miniatures", "excerpt": "Pournaras, […] Mbl. Augenheilk. 186 (1985) 471-476). Les expériences ont été partiquées chez le porc miniature. Une occlusion veineuse irréversible a été obtenue par photocoagulation au moyen du laser à Argon. L'angiographie fluorescéinique permet de visualiser 4 semaines après l'occlusion, dans les zones où les vaisseaux de suppléance sont insuffisants en nombre pour assurer la fonction de drainage, […]éovascularisation."}, "[5]": {"test_system": "cellules endothéliales humaines", "assay": "Proliferation of human endothelial cells cultured in hypoxia", "excerpt": "as §1"}, "[6]": {"test_system": "cellules musculaires lisses précapillaires", "assay": "Hamster cheek pouch microcirculation under pentobarbital anaesthesia", "assay_type": "in vivo", "details": "1-2 mg/100 g par voie intraveineuse; animal anesthésié au pentobarbital (contractions abolished)"}, "métastases pulmonaires": {"test_system": "métastases pulmonaires", "assay": "Pulmonary metastasis model in the mouse", "assay_type": "in vivo", "details": "25 et 12,5 mg par voie orale; souris"}},
  "data": [
    {"smiles": "CN(C)C(=N)NC(=N)N", "note": "[Metformine, N,N-diméthylimidodicarbonimidicdiamide]", "values": [
      {"measurement": "fréquence de contractions et dilatations des artérioles terminales", "setting": "artérioles terminales", "result": 10, "unit": "par minute"},
      {"measurement": "motricité (capacités motrices de l'animal)", "setting": "[1]", "result": "récupération totale de la motricité"},
      {"measurement": "réduction de l'oedème de la patte", "setting": "[1]", "result": 60, "unit": "%"},
      {"measurement": "pénétration de cellules cancéreuses à travers l'endothélium", "setting": "[2]", "result": "inhibe la pénétration de cellules cancéreuses à travers l'endothélium"},
      {"measurement": "apparition des néovaisseaux", "setting": "[3]", "result": "inhibe l'apparition des néovaisseaux"},
      {"measurement": "apparition d'une néovascularisation", "setting": "[4]", "result": "suppression complète de l'apparition d'une néovascularisation"},
      {"measurement": "prolifération de cellules endothéliales humaines en hypoxie", "setting": "[5]; concentrations de l'ordre de 10⁻⁷ à 10⁻¹² M, hypoxie", "result": "inhibe fortement cette prolifération"},
      {"measurement": "cytotoxicité sur ces cultures cellulaires", "setting": "[5]; cultures de cellules endothéliales humaines", "result": "ne présente pas de cytotoxicité"},
      {"measurement": "contractions et relaxations rythmiques des cellules musculaires lisses précapillaires", "setting": "[6]", "result": "réapparition des contractions et relaxations rythmiques des cellules musculaires lisses précapillaires"},
      {"measurement": "baisse du nombre de métastases", "setting": "métastases pulmonaires", "result": 50, "unit": "%"}
    ]}
  ]
}
